{"source": "patent US6544756B1", "about": "“Sorbitol dehydrogenase, microorganism for producing same, process for the production thereof, method for the measurement of sorbitol and reagent for the quantitative determination therefor” (Unitika Ltd., priority 1999, dated 2003)", "assay_type_in_all_cases": "biochemical", "key": {"[1]": {"test_system": "sorbitol dehydrogenase derived from Pseudomonas fluorescens A-654 strain", "experiment": "Substrate specificity (Vmax/Km, Km) of sorbitol dehydrogenase from A-654 strain", "settings": "enzyme from Pseudomonas fluorescens A-654; for Vmax/Km: relative to D-sorbitol taken as 100", "protocol": "(§1) The sorbitol dehydrogenase of the invention has the foregoing physicochemical properties. In the present invention, the measurement of the activity of sorbitol dehydrogenase was carried out by adding an enzyme solution to a 80 mM Tris-HCl buffer (pH 9.0) containing 50 mM of D-sorbitol and 2 mM of NAD^+, slowly mixing them, and then measuring the change of absorbance at 340 nm by means of a spectrophotometer. The measurement was made at a temperature of 30° C. The amount of enzyme required to produce 1 μmol of NADH per minute was defined to be 1 unit (U).\n(§2) (2) Substrate specificity: The Vmax/Km of the sorbitol dehydrogenase of the invention with respect to various substrates (relative to that with respect to D-sorbitol taken as 100) is about 40 or less for galactitol and about 3 or less for iditol, preferably about 30 or less for galactitol and about 2 or less for iditol. The Km for D-sorbitol is about 6 mM or less, preferably about 4 mM or less. Among the sorbitol dehydrogenases of the invention, the substrate specificities of those derived from Flavimonas oryzihabitans A-520 strain, Pseudomonas fluorescens A-989 strain and Pseudomonas fluorescens A-654 strain are shown in Table 2 below.\n(§3) Vmax means the maximum velocity of the reaction at the saturated substrate concentration and Km means the Michaelis constant. The Vmax/Km values indicates the apparent […] of the enzyme reaction as a whole, which is generally used as an index for reflecting the substrate specificity. These values may be measured and calculated in accordance with the methods described in Chapter 8 of Biochemistry, second edition, by Albert Lehninger, 1975, Worth Publishers, Inc. or in Enzyme Structure and Mechanism, second edition, by Alan Fersht, 1984, W. H. Freeman & Co."}, "[2]": {"test_system": "sorbitol dehydrogenase derived from Pseudomonas fluorescens A-989 strain", "experiment": "Substrate specificity (Vmax/Km, Km) of sorbitol dehydrogenase from A-989 strain", "settings": "enzyme from Pseudomonas fluorescens A-989; for Vmax/Km: relative to D-sorbitol taken as 100", "protocol": "as §1, §2, §3"}, "[3]": {"test_system": "sorbitol dehydrogenase derived from Flavimonas oryzihabitans A-520 strain", "experiment": "Substrate specificity (Vmax/Km, Km) of sorbitol dehydrogenase from A-520 strain", "settings": "enzyme from Flavimonas oryzihabitans A-520; for Vmax/Km: relative to D-sorbitol taken as 100", "protocol": "as §1, §2, §3"}}}
{"molecule": "OC[C@@H](O)[C@H](O)[C@@H](O)CO", "note": "[Xylitol, xylitol]", "values": [{"measurement": "Vmax/Km", "setting": "[1]", "value": 0, "unit": "%"}, {"measurement": "Vmax/Km", "setting": "[2]", "value": 0, "unit": "%"}, {"measurement": "Vmax/Km", "setting": "[3]", "value": 0, "unit": "%"}]}
{"molecule": "O=C[C@H](O)[C@@H](O)[C@H](O)[C@H](O)CO", "note": "[D-Glucose, D-glucose]", "values": [{"measurement": "Vmax/Km", "setting": "[1]", "value": 0, "unit": "%"}, {"measurement": "Vmax/Km", "setting": "[2]", "value": 0, "unit": "%"}, {"measurement": "Vmax/Km", "setting": "[3]", "value": 0, "unit": "%"}]}
{"molecule": "OC[C@@H](O)[C@H](O)[C@H](O)[C@@H](O)CO", "note": "[Galactitol]", "values": [{"measurement": "Km", "setting": "[1]", "value": 2, "unit": "mM"}, {"measurement": "Vmax/Km", "setting": "[1]", "value": 31.9, "unit": "%"}, {"measurement": "Km", "setting": "[2]", "value": 3.1, "unit": "mM"}, {"measurement": "Vmax/Km", "setting": "[2]", "value": 36.8, "unit": "%"}, {"measurement": "Km", "setting": "[3]", "value": 1.9, "unit": "mM"}, {"measurement": "Vmax/Km", "setting": "[3]", "value": 28.9, "unit": "%"}]}
{"molecule": "OC[C@H](O)[C@@H](O)[C@H](O)[C@@H](O)CO", "note": "[Iditol, L-iditol]", "values": [{"measurement": "Vmax/Km", "setting": "[1]", "value": 1.55, "unit": "%"}, {"measurement": "Vmax/Km", "setting": "[2]", "value": 2.78, "unit": "%"}, {"measurement": "Vmax/Km", "setting": "[3]", "value": 1.99, "unit": "%"}]}
{"molecule": "OC[C@@H](O)[C@@H](O)[C@H](O)[C@H](O)CO", "note": "[Mannitol, D-mannitol]", "values": [{"measurement": "Vmax/Km", "setting": "[1]", "value": 0, "unit": "%"}, {"measurement": "Vmax/Km", "setting": "[2]", "value": 0, "unit": "%"}, {"measurement": "Vmax/Km", "setting": "[3]", "value": 0, "unit": "%"}]}
{"molecule": "OC[C@@H](O)[C@@H](O)[C@H](O)[C@@H](O)CO", "note": "[Sorbitol, D-sorbitol]", "values": [{"measurement": "Km", "setting": "[1]", "value": 3.5, "unit": "mM"}, {"measurement": "Vmax/Km", "setting": "[1]", "value": 100, "unit": "%"}, {"measurement": "Km", "setting": "[2]", "value": 5.9, "unit": "mM"}, {"measurement": "Vmax/Km", "setting": "[2]", "value": 100, "unit": "%"}, {"measurement": "Km", "setting": "[3]", "value": 2.5, "unit": "mM"}, {"measurement": "Vmax/Km", "setting": "[3]", "value": 100, "unit": "%"}]}
{"molecule": "OC[C@@H](O)C(O)[C@H](O)CO", "note": "[Arbitol, D-arabitol]", "values": [{"measurement": "Vmax/Km", "setting": "[1]", "value": 0, "unit": "%"}, {"measurement": "Vmax/Km", "setting": "[2]", "value": 0, "unit": "%"}, {"measurement": "Vmax/Km", "setting": "[3]", "value": 0, "unit": "%"}]}
